Measured values from patent US12636274B2, “Pharmaceutical compositions and methods for systemic treatment of solid tumors” (7 HILLS INTERESTS LLC, priority 2014, dated 2026).

Legend:
α4β7/MAcDAM-1 = molecular target: T1, α4β7/MAcDAM-1 (Homo sapiens, UniProt P13612+P26010); assay: Integrin activation, adhesion α4β7/MAcDAM-1; assay type: cell-based; conditions: 50% serum; n = 3; read-out: Integrin Selectivity EC50 α4β7/MAcDAM-1
T1 sequence (P13612 34-1032): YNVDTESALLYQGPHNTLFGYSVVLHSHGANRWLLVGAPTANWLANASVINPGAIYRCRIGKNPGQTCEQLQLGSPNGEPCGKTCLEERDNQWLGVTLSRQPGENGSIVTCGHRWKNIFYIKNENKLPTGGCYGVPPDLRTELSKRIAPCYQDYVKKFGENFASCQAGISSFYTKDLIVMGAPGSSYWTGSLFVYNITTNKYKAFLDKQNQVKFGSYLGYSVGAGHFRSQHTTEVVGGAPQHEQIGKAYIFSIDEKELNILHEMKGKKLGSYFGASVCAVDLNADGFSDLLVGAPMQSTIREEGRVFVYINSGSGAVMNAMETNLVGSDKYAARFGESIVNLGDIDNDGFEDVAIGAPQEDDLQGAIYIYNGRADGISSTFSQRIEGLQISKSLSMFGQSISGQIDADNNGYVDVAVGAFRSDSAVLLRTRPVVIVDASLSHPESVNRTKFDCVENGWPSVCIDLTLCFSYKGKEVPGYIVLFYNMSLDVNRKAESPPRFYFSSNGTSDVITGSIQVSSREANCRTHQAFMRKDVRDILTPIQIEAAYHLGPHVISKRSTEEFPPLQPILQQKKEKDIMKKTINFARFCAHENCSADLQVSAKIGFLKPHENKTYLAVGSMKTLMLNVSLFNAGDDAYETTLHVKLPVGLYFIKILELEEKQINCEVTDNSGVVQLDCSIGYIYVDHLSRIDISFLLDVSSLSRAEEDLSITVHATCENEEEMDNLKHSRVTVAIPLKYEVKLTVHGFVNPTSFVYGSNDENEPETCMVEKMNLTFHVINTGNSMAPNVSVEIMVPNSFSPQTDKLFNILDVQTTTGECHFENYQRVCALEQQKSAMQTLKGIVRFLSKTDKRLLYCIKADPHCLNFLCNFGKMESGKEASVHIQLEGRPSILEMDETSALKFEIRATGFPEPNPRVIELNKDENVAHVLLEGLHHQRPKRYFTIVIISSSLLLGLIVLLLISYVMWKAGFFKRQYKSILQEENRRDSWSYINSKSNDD
T1 sequence (P26010 20-798): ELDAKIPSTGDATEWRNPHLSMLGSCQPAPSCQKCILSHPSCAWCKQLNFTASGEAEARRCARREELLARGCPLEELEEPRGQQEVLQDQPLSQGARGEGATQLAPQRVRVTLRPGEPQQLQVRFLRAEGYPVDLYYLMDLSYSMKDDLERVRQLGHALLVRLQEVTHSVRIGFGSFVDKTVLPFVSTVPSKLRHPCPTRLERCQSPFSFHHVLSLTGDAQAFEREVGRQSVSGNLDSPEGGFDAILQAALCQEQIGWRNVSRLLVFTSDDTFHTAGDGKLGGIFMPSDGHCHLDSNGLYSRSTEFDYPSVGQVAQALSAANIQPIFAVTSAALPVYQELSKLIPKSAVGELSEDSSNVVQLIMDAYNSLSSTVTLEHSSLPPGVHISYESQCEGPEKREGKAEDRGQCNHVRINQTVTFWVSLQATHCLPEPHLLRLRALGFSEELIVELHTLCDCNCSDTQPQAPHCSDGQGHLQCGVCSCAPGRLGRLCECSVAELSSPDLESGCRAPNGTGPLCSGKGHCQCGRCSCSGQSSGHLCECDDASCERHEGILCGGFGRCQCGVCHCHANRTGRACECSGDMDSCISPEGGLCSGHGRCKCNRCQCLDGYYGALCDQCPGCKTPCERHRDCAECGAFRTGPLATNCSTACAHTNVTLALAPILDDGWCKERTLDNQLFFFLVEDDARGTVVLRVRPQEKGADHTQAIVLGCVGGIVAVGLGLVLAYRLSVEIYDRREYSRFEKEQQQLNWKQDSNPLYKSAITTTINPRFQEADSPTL
From the text: (§1) Activating all integrins is necessary for firm endothelial cell adhesion for extravasation.

[1] = test system: CT26 colon cancer syngeneic tumor; assay: Study 3: CT26 syngeneic tumor model in Balb/c mice, treatment from +1 day after implantation; assay type: in vivo, Mouse (Mus musculus)
Protocol: Mouse colon carcinoma CT26 cells were obtained from American Type Culture Collection (ATCC), USA. Cells were grown in RPMI-1640 medium (Sigma, Cat # R6504) supplemented with 10% FBS (Invitrogen, Cat #10438-026), and 1% penicillin streptomycin (Thermo Fisher Scientific, Cat #15140-122). To establish allografts, 1 million CT26 cells were suspended in 50 μL of serum-free medium and mixed at 1:1 ratio with matrigel before implanting subcutaneously into the right flank of mice.
Prior to inoculation, the skin on the injection site was swabbed with alcohol. To establish allografts, CT26 cells were suspended in serum free medium at a concentration of (1×10^6)/50 μL, mixed with equal volume of matrigel (1:1 ratio) and 100 μL of this mixture was injected to each mouse by subcutaneous implantation using a 1 mL BD syringe attached to a 24 gauge needle.
CT26 tumor xenografts were measured after approximately 1 week of cell inoculation when they become palpable. When the average tumor volume reaches around 110 mm^3, animals were randomized into treatment groups group maintaining the average tumor volume of each group similar across groups for Study 1 and Study 2. In Study 3, the animals were randomized on the basis of body weights +1 day post cell implantation.
Tumor dimensions (length and breadth) were measured on days 0 (animal randomization based on tumor volume) and thrice weekly thereafter until study termination. Tumor volumes were calculated using the formula (b^2*l)*0.52 where l=length, b=breadth (Dusan Djokovic et al., BMC Cancer, 2010, 10:641). Tumor growth inhibition was calculated after normalizing the tumor volume on a given day to that on day 1.
Mean body weight loss and percent changes were calculated for each group. Similarly, mean tumor volume and percent tumor growth inhibition were calculated. The percent tumor growth inhibition (% TGI) as a function of anti-tumor efficacy were computed with respect to untreated vehicle control by comparing to the tumor volumes of day 1 using formula described below: % TGI=[1−(Treatment TVFinal−Treatment TVInitial)/(Control TVFinal−Control TVInitial)]*100
The test agent, Compound 1 was evaluated in CT26 syngeneic tumor model in Balb/c mice. Compound 1 was administered in mice +1 day after CT26 cell implantation. Tumors were not measurable at this time, however, tumors became palpable on day 7 and tumors were measured from that point.

aiibb3/Fibrinogen = aiibb3/Fibrinogen (Homo sapiens, UniProt P05106+P08514); assay: Integrin activation, adhesion aiibb3/Fibrinogen; assay type: cell-based; design: key: Not Active: Not active: ≤2 fold increase in adhesion; conditions: 50% serum; n = 3
aiibb3/Fibrinogen, sequence (P08514 32-887 limits assumed): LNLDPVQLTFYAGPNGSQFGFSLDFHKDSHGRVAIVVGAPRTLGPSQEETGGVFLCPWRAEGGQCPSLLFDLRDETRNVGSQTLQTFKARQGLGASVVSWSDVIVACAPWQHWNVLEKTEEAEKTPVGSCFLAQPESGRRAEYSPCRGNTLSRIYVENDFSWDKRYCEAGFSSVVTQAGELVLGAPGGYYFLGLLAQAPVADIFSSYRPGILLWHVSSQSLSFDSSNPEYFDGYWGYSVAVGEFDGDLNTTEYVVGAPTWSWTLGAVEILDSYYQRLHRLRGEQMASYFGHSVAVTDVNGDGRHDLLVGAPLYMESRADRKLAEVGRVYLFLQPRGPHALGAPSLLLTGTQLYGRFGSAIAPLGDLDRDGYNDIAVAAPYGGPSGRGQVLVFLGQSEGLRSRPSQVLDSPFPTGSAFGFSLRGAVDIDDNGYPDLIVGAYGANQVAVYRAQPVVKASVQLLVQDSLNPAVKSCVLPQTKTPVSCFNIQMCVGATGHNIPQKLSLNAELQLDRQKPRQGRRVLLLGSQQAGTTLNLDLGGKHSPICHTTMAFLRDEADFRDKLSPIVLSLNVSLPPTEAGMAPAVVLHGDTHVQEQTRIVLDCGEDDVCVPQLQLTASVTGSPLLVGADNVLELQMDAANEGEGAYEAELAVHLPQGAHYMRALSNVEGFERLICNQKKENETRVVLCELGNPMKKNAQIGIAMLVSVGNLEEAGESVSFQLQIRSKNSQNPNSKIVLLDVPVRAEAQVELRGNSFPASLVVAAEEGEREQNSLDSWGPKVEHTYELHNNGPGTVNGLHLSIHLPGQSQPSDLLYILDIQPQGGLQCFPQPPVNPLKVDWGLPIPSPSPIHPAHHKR
aiibb3/Fibrinogen, sequence (P08514 891-1039 limits assumed): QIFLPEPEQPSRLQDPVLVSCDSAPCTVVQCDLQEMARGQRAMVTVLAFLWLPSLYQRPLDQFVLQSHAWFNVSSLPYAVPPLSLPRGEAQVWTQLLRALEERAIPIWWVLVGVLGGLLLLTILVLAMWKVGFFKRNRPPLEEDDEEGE
aiibb3/Fibrinogen, sequence (P05106 27-788): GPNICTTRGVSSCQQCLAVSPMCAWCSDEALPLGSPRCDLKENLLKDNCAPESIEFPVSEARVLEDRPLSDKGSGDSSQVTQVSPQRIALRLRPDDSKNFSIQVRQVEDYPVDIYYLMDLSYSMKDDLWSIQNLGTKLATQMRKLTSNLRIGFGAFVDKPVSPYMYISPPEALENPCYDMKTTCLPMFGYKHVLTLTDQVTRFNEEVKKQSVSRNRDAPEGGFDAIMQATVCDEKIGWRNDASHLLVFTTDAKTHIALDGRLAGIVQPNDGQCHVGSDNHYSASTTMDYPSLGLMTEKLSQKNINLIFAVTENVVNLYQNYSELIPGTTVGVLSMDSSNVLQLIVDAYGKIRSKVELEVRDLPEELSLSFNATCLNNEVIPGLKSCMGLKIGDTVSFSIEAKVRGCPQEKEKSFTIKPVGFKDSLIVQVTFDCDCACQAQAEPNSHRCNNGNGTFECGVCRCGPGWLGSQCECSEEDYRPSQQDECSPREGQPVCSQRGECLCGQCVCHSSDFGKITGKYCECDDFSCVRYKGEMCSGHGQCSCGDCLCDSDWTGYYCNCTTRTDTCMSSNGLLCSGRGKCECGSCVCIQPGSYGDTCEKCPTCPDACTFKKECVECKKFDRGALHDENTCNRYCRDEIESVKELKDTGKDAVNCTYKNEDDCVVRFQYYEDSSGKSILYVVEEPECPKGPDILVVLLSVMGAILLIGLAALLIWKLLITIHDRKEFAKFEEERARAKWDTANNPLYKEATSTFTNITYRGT
From the text: as §1

## O=C(OCCOCCOCCOC(=O)N(Cc1cccs1)Cc1cccs1)N(Cc1cccs1)Cc1cccs1 [Compound 1, 3-oxo-1-(2-thienyl)-2-(2-thienylmethyl)-4,7,10-trioxa-2-azadodecan-12-yl bis(2-thienylmethyl)carbamate]
α4β7/MAcDAM-1
  EC50: 10 ± 2.1 µM
[1]; 1 mg/kg BID (IP), Day 7
  Average Tumor Volume, Mean: 91 mm^3
[1]; 1 mg/kg BID (IP), Day 10
  Average Tumor Volume, Mean: 159 mm^3
[1]; 1 mg/kg BID (IP), Day 12
  Average Tumor Volume, Mean: 269 mm^3
[1]; 1 mg/kg BID (IP), Day 14
  Average Tumor Volume, Mean: 342^‡ mm^3
[1]; 1 mg/kg BID (IP), Day 16
  Average Tumor Volume, Mean: 512^‡‡ mm^3
[1]; 1 mg/kg BID (IP), Day 18
  Average Tumor Volume, Mean: 689^‡‡ mm^3
[1]; 1 mg/kg IP QD, Day 7
  Average Tumor Volume, Mean: 96 mm^3
[1]; 1 mg/kg IP QD, Day 10
  Average Tumor Volume, Mean: 193 mm^3
[1]; 1 mg/kg IP QD, Day 12
  Average Tumor Volume, Mean: 312 mm^3
[1]; 1 mg/kg IP QD, Day 14
  Average Tumor Volume, Mean: 415^† mm^3
[1]; 1 mg/kg IP QD, Day 16
  Average Tumor Volume, Mean: 566^†† mm^3
[1]; 1 mg/kg IP QD, Day 18
  Average Tumor Volume, Mean: 768^‡ mm^3
[1]; IP BID (1 mg/kg), day 14, p<0.01
  inhibition in tumor volume (TGI): 57.6%
[1]; IP QD (1 mg/kg), day 14, p<0.05
  inhibition in tumor volume (TGI): 46.1%
aiibb3/Fibrinogen
  Integrin Selectivity EC50 aiibb3/Fibrinogen: Not Active
